In BindingDB's records for doi:10.1016/s0165-0270(00)00358-7 (University of Nebraska, 2001):

Target: T1, Alpha-2C adrenergic receptor (Rattus norvegicus, UniProt P22086)
T1 sequence (P22086 whole entry): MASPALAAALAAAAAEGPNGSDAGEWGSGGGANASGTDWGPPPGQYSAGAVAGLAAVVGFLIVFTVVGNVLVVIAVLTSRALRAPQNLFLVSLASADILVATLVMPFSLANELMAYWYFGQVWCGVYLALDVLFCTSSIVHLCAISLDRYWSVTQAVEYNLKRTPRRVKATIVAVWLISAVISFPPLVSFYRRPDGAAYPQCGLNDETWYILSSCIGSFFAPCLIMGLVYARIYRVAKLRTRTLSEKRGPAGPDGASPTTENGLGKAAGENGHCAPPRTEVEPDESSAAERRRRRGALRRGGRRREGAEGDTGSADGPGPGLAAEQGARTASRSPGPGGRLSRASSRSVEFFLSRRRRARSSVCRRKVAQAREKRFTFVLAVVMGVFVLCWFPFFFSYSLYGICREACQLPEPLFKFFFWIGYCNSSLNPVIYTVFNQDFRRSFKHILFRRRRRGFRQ

| Ki [nM] | SMILES |
| --- | --- |
| 1.6 | [N-]=[N+]=Nc1ccc(NP(=O)(O)OP(=O)(O)OP(=O)(O)OC[C@H]2O[C@@H](n3cnc4c(=O)[nH]c(N)nc43)[C@H](O)[C@@H]2O)cc1 [CAS_59803-98-4] |
| 6.2 | Nc1nc2c(ncn2[C@@H]2O[C@H](COP(=O)(O)OP(=O)(O)NP(=O)(O)O)[C@@H](O)[C@H]2O)c(=O)[nH]1 [CAS_59803-98-4] |

| SMILES | Ki [nM] |
| --- | --- |
| Nc1ncnc2c1ncn2[C@@H]1O[C@H](COP(=O)(O)OP(=O)(O)OP(=O)(O)O)[C@@H](O)[C@H]1O | 3.1 |
